Measurements reported in patent US20220249435A1, “Applications of Butyrolactone-I in Preparing Medicine for Preventing Neuroinflammation and/or Memory and Cognitive Disorders” (priority 2021, published 2022).

Key:
Type in all cases: in vivo
[1] = tested on: IL-1β; assay: Level of inflammatory factor IL-1β in brain and peripheral tissues of zebrafish
Description: (§1) 75 zebrafish (3.0±0.4 cm) are randomly classified into control group, AlCl3 model group and 3 experimental groups with 15 zebrafish in each group, zebrafish in the experimental group are fed with food with butyrolactone-I content of 25 mg/kg, 50 mg/kg and 100 mg/kg for 20 days. zebrafish in control group and model group are fed the same amount of normal food respectively. 20 days later, after anesthesia, zebrafish in model group and experimental group are injected with AlCl3 solution (4.2 mg/mL, 5μL, pH=5.0±0.2) intraperitoneally, while zebrafish in the control group are injected with the same amount of normal saline. Memory test is performed in T maze 24 hours after injection.
(§2) 24 hours after the behavior test, the fish are euthanized, and every five fish in each group is a sample. The brain, surrounding tissues and intestines are collected and stored in a refrigerator at −80° C. All samples (except intestinal tract) are homogenized in phosphate buffer solution for further analysis. Centrifuging is conducted at 4° C. for 15 min at 1500 r/min, and the supernatant is collected. The changes of GSH level and AChE activity of tissue biomarkers are detected by using brain supernatant of zebrafish. In addition, brain samples and supernatant of peripheral tissues of zebrafish are used to determine the levels of IL-1β and TNF-α. The results are expressed by the activity of AChE per gram of protein and the amount of glutathione per gram of protein. According to OD value, the regression equation of IL-1β and TNF-α standard curves is calculated, and the logistic curve (4 parameters each) is used as a fitting model.
Graphpad Prism 8.0 is used for mapping, and One-way ANOVA and Dunnett's post hoc test are used to evaluate the differences between model group and control group, experimental group and model group.

[2] = tested on: zebrafish intestinal flora; assay: Intestinal flora of zebrafish by 16S V3-V4 sequencing
Description: as §1, §2
Genomic DNA is extracted from 15 intestinal samples by proteinase K cleavage method, and sent to TinyGene Bio-Tech (ShangHai) Co., Ltd. for sequencing. The selected target gene is 16S V3-V4. According to the requirements of illumina high-throughput sequencing, two-way sequencing is carried out, and the target region and the fusion primer with “5′ linker-barcode-sequencing primer-specific primer-3′” are designed. The fusion primer comprises the following primers: […]
The library is constructed by a two-step PCR amplification method. First, specific primers (hereinafter described as inner primers) are used to amplify the target fragments, and then gel recovery is carried out on the target fragments. Then, the recovered products are used as templates for secondary PCR amplification (hereinafter described as outer primers for amplification). The purpose of amplification is to add the linker, sequencing primer and barcode needed by illumina platform sequencing to both ends of the target fragment.
AxyPrepDNA gel recovery kit is used for recovery, FTC-3000™ real-time PCR is used for real-time fluorescence quantification, and then Illumina high-throughput sequencing and bioinformatics analysis are performed. The length of the sequence is 450 bp, and the sequencing result is the original data, and quality of the sequence is evaluated and optimized. Trimmomatic is used for sequence filtering and FLASH for jointing. Then ambiguity, homology and some chimeras generated in PCR are screened by motherur V. 1.39.5, and the optimized sequence for subsequent clustering OTU (operational taxonomic unit) and species information analysis is obtained. Using the software USEARCH, the jointed sequences are clustered into OTU (at 97% similarity level) for later analysis.
VENN diagram may be used to count the number of common and unique OTU in multiple samples, and may intuitively show the similarity and overlap of OTU numbers of environmental samples. Usually the OTU sample table with a similar level of 97% is selected for analysis.
Alpha diversity analysis reflects the richness and diversity of communities in the sample, using motheru (http://www.mothur.org/wiki/Schloss SOP#Alpha diversity) to calculate shannon, simpson, chao and ace indices, and using R (3.4.1) language tool to make charts. […]

[3] = tested on: GSH; assay: GSH level in brain tissue of zebrafish; settings: food with 25, 50, 100 mg/kg for 20 days; AlCl3 intraperitoneally; brain supernatant; FIG. 3A
Description: as §1
as §2, with “In addition, brain samples and supernatant of peripheral tissues of zebrafish are used to determine the levels of IL-1β and TNF-α. The results are expressed by the activity of AChE per gram of protein and the amount of glutathione per gram of protein.” left out, “model. […]” for “model.”

[4] = tested on: TNF-α; assay: Level of inflammatory factor TNF-α in brain tissues of zebrafish; settings: AlCl3 model, FIGS. 3E-3F
Description: as §1
as §2, with “In addition, brain samples and supernatant of peripheral tissues of zebrafish are used to determine the levels of IL-1β and TNF-α. The results are expressed by the activity of AChE per gram of protein and the amount of glutathione per gram of protein.” left out, “model. […]” for “model.”

[5] = tested on: AChE; assay: AChE activity in brain tissue of zebrafish; settings: food with 25, 50, 100 mg/kg for 20 days; AlCl3 intraperitoneally; brain supernatant; FIG. 3B
Description: as §1
as §2, with “In addition, brain samples and supernatant of peripheral tissues of zebrafish are used to determine the levels of IL-1β and TNF-α. The results are expressed by the activity of AChE per gram of protein and the amount of glutathione per gram of protein.” left out, “model. […]” for “model.”

[6] = tested on: zebrafish; assay: T maze memory test in AlCl3-injected zebrafish
Description: Adult wild AB zebrafish (male: female ratio is 50%: 50%) with good growth of about 6-8 months are acclimated in a 50 L water tank for 2 weeks, the temperature is 25±2° C., the light-dark cycle is 14 hours: 10 hours, and Artemia larvae are fed at 9 am and 2 pm respectively.
as §1
4 days before intraperitoneal injection, 6 fish are randomly selected from each group, and each day, they are trained separately in T maze for 5 minutes to find the eutrophic EC area. […] After 4 days of training, on the 5th day (24 hours after intraperitoneal injection), the behavior of the trained fish is tested in T maze. If the fish enters EC area and stays for more than 30 s, a valid incubation period is recorded. […] The behavioral test is conducted between 10 am and 1 pm. The Microsoft LifeCam Studio 1080p HD camera and powersoft software (Powersoft Co., Ltd., Hong Kong, China) are used to record videos. Supersys software is used to analyze the latent time (s), average swimming speed (cm/s) and the times of entering the EC zone for the first time.

[7] = phylum level, oral, AlCl3 model

COC(=O)[C@@]1(Cc2ccc(O)c(CC=C(C)C)c2)OC(=O)C(O)=C1c1ccc(O)cc1 [butyrolactone-I]
level of inflammatory factor IL-1β in the brain of zebrafish ([1]; brain, AlCl3 model, FIG. 3C): reduce the level | nerve inflammation of zebrafish caused by aluminum trichloride ([1]; overall conclusion of biochemical indexes): obviously improve | level of inflammatory factor IL-1β in peripheral tissues of zebrafish ([1]; peripheral tissues, AlCl3 model, FIG. 3D): reduce the level | abundance of Alpinimonas ([2]; genus level, oral, AlCl3 model): down-regulate | abundance of Bacillus ([2]; genus level, oral, AlCl3 model): up-regulate | abundance of Bosea ([2]; genus level, oral, AlCl3 model): down-regulate | abundance of Cetobacterium ([2]; genus level, oral, AlCl3 model): down-regulate | abundance of Mycobacterium ([2]; genus level, oral, AlCl3 model): down-regulate | abundance of Phreatobacter ([2]; genus level, oral, AlCl3 model): down-regulate | abundance of Singulisphaera ([2]; genus level, oral, AlCl3 model): down-regulate | disturbance of zebrafish intestinal flora caused by aluminum trichloride ([2]; overall conclusion): regulate the disturbance | abundance of Chlamydiae [2, 7]: down-regulate | abundance of Chloroflexi [2, 7]: down-regulate | abundance of Fusobacterium [2, 7]: down-regulate | abundance of Planctomycetes [2, 7]: down-regulate | abundance of Phylum Firmicutes ([2]; phylum level, oral, AlCl3 model, FIGS. 4A-4B): up-regulate | GSH level in brain tissue of zebrafish [3]: increase GSH level in brain tissue of zebrafish in a dose-dependent manner | level of inflammatory factor TNF-α in brain tissues of zebrafish [4]: reduce the level | AChE activity in brain tissue of zebrafish [5]: inhibit AChE activity | latent time for zebrafish to find the EC zone ([6]; food with 25, 50, 100 mg/kg butyrolactone-I for 20 days, AlCl3 intraperitoneally, T maze 24 hours after injection, FIG. 1A): shorten the latent time | average swimming speed of zebrafish ([6]; food with 25, 50, 100 mg/kg for 20 days, AlCl3 intraperitoneally, T maze, FIG. 1B): increase the average swimming speed | number of times that zebrafish enter the eutrophic EC zone ([6]; food with 25, 50, 100 mg/kg for 20 days, AlCl3 intraperitoneally, T maze, FIG. 1C): add the number of times | lingering time of zebrafish in EC area ([6]; food with 25, 50, 100 mg/kg for 20 days, AlCl3 intraperitoneally, T maze, FIGS. 2A-2E): prolong the lingering time | memory and cognitive disorder of zebrafish caused by aluminum trichloride ([6]; overall conclusion of T maze test): obviously improve
